Source: patent US4746675A, “External pharmaceutical composition” (Teijin Limited, priority 1983, dated 1988)

Key:
[1] = tested on: eye (cornea, iris, conjunctiva); experiment: primary eye irritation (Draize) in rabbits; assay type: in vivo, white native male rabbits; details: average of three rabbits
Description: enhancers of this invention shown in Table 17 was applied dropwise to one eye of white native male rabbits (body weight 2.0 to 3.0 kg; 3 per group) which, it had been ascertained, were free from any trouble at the cornea, iris and conjunctiva. Nothing was applied to the other eye. Thus, irritation of the absorption aid to the mucous membrane of the eyes were examined, and scores were calculated in accordance with the Draize's eye irritation evaluating method [Association of Foods, "Drugs and Cosmetics" (1957)].
As a control, sodium laurylsulfate, a kind of surface-active agent, was evaluated in the same way, and the results are also shown in Table 17.

carrageenan edema = carrageenan edema inhibiting effect of betamethasone valerate ointments; assay type: in vivo, rat; details: Table 5, betamethasone valerate ointment with penetration enhancer
Description: An ointment was prepared from 0.15 part by weight of betamethasone valerate, 9.85 parts by weight of compound (168) and 90 parts by weight of the hydrophilic ointment.
In accordance with the method of R. Passarella et al. [Argneim. Forsch 30, (I), Nr. 4, 647-651 (1980)], the carrageenan edema inhibiting effect of the above ointment was examined. Specifically, 0.1 ml of a 1% carrageenan suspension in 0.9% NaCl solution was injected into the tip of the right leg of a rat (body weight 150-175 g). The foot volume was measured immediately after administration of carrageenan and 3, 5, and 6 hours after the administration by means of a mercury displacement device. 0.5, 1 and 2 hours after the administration of carrageenan, 100 mg of the ointment was well […] into each of the sites which underwent inflammation.
Various ointments were prepared from 0.15 part by weight of betamethasone valerate, […] of the various penetration enhancers shown in Table 5, and 85 parts by weight of the hydrophilic ointment, and tested in the same way as in Example 23.

CCCCCCCCCCCCOCC(O)COC(=O)[C@@H]1CCC(=O)N1 (some centres unmarked) [Compound (108), 3-dodecyloxy-2-hydroxy-1-pyroglutamyloxypropane]
Primary irritation score, Conjunctiva ([1]; 0.8% soln, 1 hour): 2.0 | Primary irritation score, Cornea ([1]; 0.8% soln, 1 hour): 0 | Primary irritation score, Iris ([1]; 0.8% soln, 1 hour): 0 | Primary irritation score, Total ([1]; 0.8% soln, 1 hour): 2.0 | Primary irritation score, Conjunctiva ([1]; 0.8% soln, 3 hours): 2.0 | Primary irritation score, Cornea ([1]; 0.8% soln, 3 hours): 0 | Primary irritation score, Iris ([1]; 0.8% soln, 3 hours): 0 | Primary irritation score, Total ([1]; 0.8% soln, 3 hours): 2.0 | Primary irritation score, Conjunctiva ([1]; 0.8% soln, 6 hours): 1.3 | Primary irritation score, Cornea ([1]; 0.8% soln, 6 hours): 0 | Primary irritation score, Iris ([1]; 0.8% soln, 6 hours): 0 | Primary irritation score, Total ([1]; 0.8% soln, 6 hours): 1.3 | Primary irritation score, Conjunctiva ([1]; 0.8% soln, 24 hours): 0 | Primary irritation score, Cornea ([1]; 0.8% soln, 24 hours): 0 | Primary irritation score, Iris ([1]; 0.8% soln, 24 hours): 0 | Primary irritation score, Total ([1]; 0.8% soln, 24 hours): 0 | Primary irritation score, Conjunctiva ([1]; 0.8% soln, 48 hours): 0 | Primary irritation score, Cornea ([1]; 0.8% soln, 48 hours): 0 | Primary irritation score, Iris ([1]; 0.8% soln, 48 hours): 0 | Primary irritation score, Total ([1]; 0.8% soln, 48 hours): 0 | Primary irritation score, Conjunctiva ([1]; 0.8% soln, 72 hours): 0 | Primary irritation score, Cornea ([1]; 0.8% soln, 72 hours): 0 | Primary irritation score, Iris ([1]; 0.8% soln, 72 hours): 0 | Primary irritation score, Total ([1]; 0.8% soln, 72 hours): 0 | Primary irritation score, Conjunctiva ([1]; 0.8% soln, 96 hours): 0 | Primary irritation score, Cornea ([1]; 0.8% soln, 96 hours): 0 | Primary irritation score, Iris ([1]; 0.8% soln, 96 hours): 0 | Primary irritation score, Total ([1]; 0.8% soln, 96 hours): 0 | Primary irritation score, Conjunctiva ([1]; 0.8% soln, 168 hours): 0 | Primary irritation score, Cornea ([1]; 0.8% soln, 168 hours): 0 | Primary irritation score, Iris ([1]; 0.8% soln, 168 hours): 0 | Primary irritation score, Total ([1]; 0.8% soln, 168 hours): 0 | Percentage inhibition vs. control (carrageenan edema; 3 hrs): 20.1% | Percentage inhibition vs. control (carrageenan edema; 5 hrs): 36.7% | Percentage inhibition vs. control (carrageenan edema; 6 hrs): 36.7%

CCCCCCCC(=O)OCC(COC(=O)[C@@H]1CCC(=O)N1)OC(=O)CCCCCCC (some centres unmarked) [Compound (162), 2,3-dioctanoyloxy-1-pyroglutamyloxypropane]
Primary irritation score, Conjunctiva ([1]; 2.4% soln, 1 hour): 3.3 | Primary irritation score, Cornea ([1]; 2.4% soln, 1 hour): 0 | Primary irritation score, Iris ([1]; 2.4% soln, 1 hour): 0 | Primary irritation score, Total ([1]; 2.4% soln, 1 hour): 3.3 | Primary irritation score, Conjunctiva ([1]; 2.4% soln, 3 hours): 2.0 | Primary irritation score, Cornea ([1]; 2.4% soln, 3 hours): 0 | Primary irritation score, Iris ([1]; 2.4% soln, 3 hours): 0 | Primary irritation score, Total ([1]; 2.4% soln, 3 hours): 2.0 | Primary irritation score, Conjunctiva ([1]; 2.4% soln, 6 hours): 2.0 | Primary irritation score, Cornea ([1]; 2.4% soln, 6 hours): 0 | Primary irritation score, Iris ([1]; 2.4% soln, 6 hours): 0 | Primary irritation score, Total ([1]; 2.4% soln, 6 hours): 2.0 | Primary irritation score, Conjunctiva ([1]; 2.4% soln, 24 hours): 0 | Primary irritation score, Cornea ([1]; 2.4% soln, 24 hours): 0 | Primary irritation score, Iris ([1]; 2.4% soln, 24 hours): 0 | Primary irritation score, Total ([1]; 2.4% soln, 24 hours): 0 | Primary irritation score, Conjunctiva ([1]; 2.4% soln, 48 hours): 0 | Primary irritation score, Cornea ([1]; 2.4% soln, 48 hours): 0 | Primary irritation score, Iris ([1]; 2.4% soln, 48 hours): 0 | Primary irritation score, Total ([1]; 2.4% soln, 48 hours): 0 | Primary irritation score, Conjunctiva ([1]; 2.4% soln, 72 hours): 0 | Primary irritation score, Cornea ([1]; 2.4% soln, 72 hours): 0 | Primary irritation score, Iris ([1]; 2.4% soln, 72 hours): 0 | Primary irritation score, Total ([1]; 2.4% soln, 72 hours): 0 | Primary irritation score, Conjunctiva ([1]; 2.4% soln, 96 hours): 0 | Primary irritation score, Cornea ([1]; 2.4% soln, 96 hours): 0 | Primary irritation score, Iris ([1]; 2.4% soln, 96 hours): 0 | Primary irritation score, Total ([1]; 2.4% soln, 96 hours): 0 | Primary irritation score, Conjunctiva ([1]; 2.4% soln, 168 hours): 0 | Primary irritation score, Cornea ([1]; 2.4% soln, 168 hours): 0 | Primary irritation score, Iris ([1]; 2.4% soln, 168 hours): 0 | Primary irritation score, Total ([1]; 2.4% soln, 168 hours): 0 | Percentage inhibition vs. control (carrageenan edema; 3 hrs): 16.1% | Percentage inhibition vs. control (carrageenan edema; 5 hrs): 34.0% | Percentage inhibition vs. control (carrageenan edema; 6 hrs): 34.2%

CCC=CCCCCCCCCOCC(O)COC(=O)[C@@H]1CCC(=O)N1 (some centres unmarked) [Compound (134), 3-(9-dodecenyloxy)-2-hydroxy-1-pyroglutamyloxypropane]
Primary irritation score, Conjunctiva ([1]; 2.4% soln, 1 hour): 3.3 | Primary irritation score, Cornea ([1]; 2.4% soln, 1 hour): 0 | Primary irritation score, Iris ([1]; 2.4% soln, 1 hour): 0 | Primary irritation score, Total ([1]; 2.4% soln, 1 hour): 3.3 | Primary irritation score, Conjunctiva ([1]; 2.4% soln, 3 hours): 1.3 | Primary irritation score, Cornea ([1]; 2.4% soln, 3 hours): 0 | Primary irritation score, Iris ([1]; 2.4% soln, 3 hours): 0 | Primary irritation score, Total ([1]; 2.4% soln, 3 hours): 1.3 | Primary irritation score, Conjunctiva ([1]; 2.4% soln, 6 hours): 1.3 | Primary irritation score, Cornea ([1]; 2.4% soln, 6 hours): 0 | Primary irritation score, Iris ([1]; 2.4% soln, 6 hours): 0 | Primary irritation score, Total ([1]; 2.4% soln, 6 hours): 1.3 | Primary irritation score, Conjunctiva ([1]; 2.4% soln, 24 hours): 0 | Primary irritation score, Cornea ([1]; 2.4% soln, 24 hours): 0 | Primary irritation score, Iris ([1]; 2.4% soln, 24 hours): 0 | Primary irritation score, Total ([1]; 2.4% soln, 24 hours): 0 | Primary irritation score, Conjunctiva ([1]; 2.4% soln, 48 hours): 0 | Primary irritation score, Cornea ([1]; 2.4% soln, 48 hours): 0 | Primary irritation score, Iris ([1]; 2.4% soln, 48 hours): 0 | Primary irritation score, Total ([1]; 2.4% soln, 48 hours): 0 | Primary irritation score, Conjunctiva ([1]; 2.4% soln, 72 hours): 0 | Primary irritation score, Cornea ([1]; 2.4% soln, 72 hours): 0 | Primary irritation score, Iris ([1]; 2.4% soln, 72 hours): 0 | Primary irritation score, Total ([1]; 2.4% soln, 72 hours): 0 | Primary irritation score, Conjunctiva ([1]; 2.4% soln, 96 hours): 0 | Primary irritation score, Cornea ([1]; 2.4% soln, 96 hours): 0 | Primary irritation score, Iris ([1]; 2.4% soln, 96 hours): 0 | Primary irritation score, Total ([1]; 2.4% soln, 96 hours): 0 | Primary irritation score, Conjunctiva ([1]; 2.4% soln, 168 hours): 0 | Primary irritation score, Cornea ([1]; 2.4% soln, 168 hours): 0 | Primary irritation score, Iris ([1]; 2.4% soln, 168 hours): 0 | Primary irritation score, Total ([1]; 2.4% soln, 168 hours): 0 | Percentage inhibition vs. control (carrageenan edema; 3 hrs): 16.4% | Percentage inhibition vs. control (carrageenan edema; 5 hrs): 30.3% | Percentage inhibition vs. control (carrageenan edema; 6 hrs): 34.2%

CCCCCCCCC1(CCCCCCCC)OCC(COC(=O)C2CCC(=O)N2)O1 (centres unmarked) [Compound (214), 2,3-dioxo-(dioctyl)methylene-1-pyroglutamyloxypropane]
Primary irritation score, Conjunctiva ([1]; 2.4% soln, 1 hour): 2.0 | Primary irritation score, Cornea ([1]; 2.4% soln, 1 hour): 0 | Primary irritation score, Iris ([1]; 2.4% soln, 1 hour): 0 | Primary irritation score, Total ([1]; 2.4% soln, 1 hour): 2.0 | Primary irritation score, Conjunctiva ([1]; 2.4% soln, 3 hours): 2.0 | Primary irritation score, Cornea ([1]; 2.4% soln, 3 hours): 0 | Primary irritation score, Iris ([1]; 2.4% soln, 3 hours): 0 | Primary irritation score, Total ([1]; 2.4% soln, 3 hours): 2.0 | Primary irritation score, Conjunctiva ([1]; 2.4% soln, 6 hours): 2.0 | Primary irritation score, Cornea ([1]; 2.4% soln, 6 hours): 0 | Primary irritation score, Iris ([1]; 2.4% soln, 6 hours): 0 | Primary irritation score, Total ([1]; 2.4% soln, 6 hours): 2.0 | Primary irritation score, Conjunctiva ([1]; 2.4% soln, 24 hours): 0 | Primary irritation score, Cornea ([1]; 2.4% soln, 24 hours): 0 | Primary irritation score, Iris ([1]; 2.4% soln, 24 hours): 0 | Primary irritation score, Total ([1]; 2.4% soln, 24 hours): 0 | Primary irritation score, Conjunctiva ([1]; 2.4% soln, 48 hours): 0 | Primary irritation score, Cornea ([1]; 2.4% soln, 48 hours): 0 | Primary irritation score, Iris ([1]; 2.4% soln, 48 hours): 0 | Primary irritation score, Total ([1]; 2.4% soln, 48 hours): 0 | Primary irritation score, Conjunctiva ([1]; 2.4% soln, 72 hours): 0 | Primary irritation score, Cornea ([1]; 2.4% soln, 72 hours): 0 | Primary irritation score, Iris ([1]; 2.4% soln, 72 hours): 0 | Primary irritation score, Total ([1]; 2.4% soln, 72 hours): 0 | Primary irritation score, Conjunctiva ([1]; 2.4% soln, 96 hours): 0 | Primary irritation score, Cornea ([1]; 2.4% soln, 96 hours): 0 | Primary irritation score, Iris ([1]; 2.4% soln, 96 hours): 0 | Primary irritation score, Total ([1]; 2.4% soln, 96 hours): 0 | Primary irritation score, Conjunctiva ([1]; 2.4% soln, 168 hours): 0 | Primary irritation score, Cornea ([1]; 2.4% soln, 168 hours): 0 | Primary irritation score, Iris ([1]; 2.4% soln, 168 hours): 0 | Primary irritation score, Total ([1]; 2.4% soln, 168 hours): 0 | Percentage inhibition vs. control (carrageenan edema; 3 hrs): 18.2% | Percentage inhibition vs. control (carrageenan edema; 5 hrs): 35.3% | Percentage inhibition vs. control (carrageenan edema; 6 hrs): 35.5%
